Laboratory results from patent US20210121376A1, “PEPTIDES ENCAPSULATED IN LECITHIN AND ALGINATE” (INFINITEC ACTIVOS, S.L., priority 2018, published 2021).
Peptide text beside a SMILES is read from it. * marks the point of attachment. Palmitoyl = CCCCCCCCCCCCCCCC(=O)*; X1 = NCOCCOCCOCCCN*

Key:
[1] = molecular target: T1, papain (Carica papaya, UniProt P00784); test: Peptide degradation by proteases (Example 8b, PH-26 peptide); type: in vitro ADME
T1 sequence (P00784 134-345): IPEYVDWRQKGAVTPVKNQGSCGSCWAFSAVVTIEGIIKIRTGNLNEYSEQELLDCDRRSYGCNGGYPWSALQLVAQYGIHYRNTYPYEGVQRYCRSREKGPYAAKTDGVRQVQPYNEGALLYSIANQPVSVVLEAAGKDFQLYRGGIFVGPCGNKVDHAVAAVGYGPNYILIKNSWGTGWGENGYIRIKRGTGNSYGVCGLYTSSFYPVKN
Experimental: b) 20 mg of papain were added to the formulation of Comparative example 6c, and 1.5 mg of papain were added to a solution of 40 mg of the formulation of Example 1c in 1.0 mL of PBS buffer. Both samples were incubated at 40° C. Aliquots were taken at study times 0 h, 0.17 h, 0.3 h and 24 h, after the addition of papain, centrifuged at 1400 rpm for 1 min, and the supernatant was filtered using a 0.45 μm filter and analyzed by HPLC.
(§1) HPLC analysis was carried out in a Waters 996 instrument with a diode array detector equipped with Waters 2695 separations module and Millenium software; an Xbridge BEH130 C18 4.6×100 mm 3.5 μm reversed phase column by Waters was used. UV detection was performed at 220 nm and a mobile phase B gradient of 5 to 100% was performed for 8 minutes at 1.0 ml/min of flow. Under these conditions, the retention time of the peptide of formula (I) wherein R is palmitoyl (Matrixyl®, PP-4) is 6.4 min. Mobile phase A: 0.045% TFA/H2O, mobile phase B: 0.036% TFA/acetonitrile.

[2] = molecular target: T1, papain; test: Peptide degradation by proteases (Example 8a, PP-4 peptide); type: in vitro ADME
Experimental: a) 5 mg of each of the formulations of Example 1b and Comparative example 6b were incubated at 40° C. with 20 mg of papain. Samples were taken at study times 0 h, 0.3 h, 0.6 h, and 5 h after the addition of papain, centrifuged at 1400 rpm for 1 min, and the supernatant was filtered using a 0.45 μm filter and analyzed by HPLC.
as §1

degradation with papain (in words) [1]	degradation with papain (in words) [2]	Compound
nearly completely degraded		CCCCCCCCCCCCCCCC(=O)N[C@@H](CCCCN)C(=O)N[C@@H](C)C(=O)N[C@@H](CCC(N)=O)C(=O)N[C@@H](CCCCN)C(=O)N[C@@H](CCCNC(=N)N)C(=O)N[C@@H](Cc1ccccc1)C(=O)NCCCOCCOCCOCN [PH-26 peptide, R1-L-Lys-L-Ala-L-Gln-L-Lys-L-Arg-L-Phe-NH—(CH2)3—O—(CH2)2—O—(CH2)2—O—(CH2)—NH2] (Palmitoyl-KAQKRF-X1; N-terminus and C-terminus assumed)
	completely degraded	CCCCCCCCCCCCCCCC(=O)N[C@@H](CCCCN)C(=O)N[C@H](C(=O)N[C@H](C(=O)N[C@@H](CCCCN)C(=O)N[C@@H](CO)C(=O)O)[C@@H](C)O)[C@@H](C)O [PP-4, Palm-L-Lys-L-Thr-L-Thr-L-Lys-L-Ser-OH] (Palmitoyl-KTTKS-OH)
